Measured values published in the supplement of paper PMC8671470.

Tests used:
Conditions in all cases: 72 h
[1] = system: Mono-Mac-6; experiment: cell viability (% survival relative to DMSO control, bortezomib = 0%); higher = less cytotoxic
Method in brief: (§1)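 Percent survival is reported as the mean of duplicate wells. Cells from 10 AML and 5 CML lines were plated in 384-well plates containing compounds at 1, 10, 100, 1000 or 10000 nM and kept for 72 h at 37 °C in 5% CO2. Readout used CellTiter-Glo luminescence, scaled so that vehicle equals 100% and a 10 µM positive control equals 0%.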

[2] = system: NOMO-1; experiment: as above
Method in brief: as §1

[3] = system: THP-1; experiment: as above
Method in brief: as §1

[4] = system: ML-2; experiment: as above
Method in brief: as §1

[5] = system: KCL-22; experiment: as above
Method in brief: as §1

[6] = system: BV-173; experiment: as above
Method in brief: as §1

[7] = system: HEL; experiment: as above
Method in brief: as §1

[8] = system: KU-812; experiment: as above
Method in brief: as §1

[9] = system: K-562; experiment: as above
Method in brief: as §1

[10] = system: KG-1; experiment: as above
Method in brief: as §1

[11] = system: LAMA-84; experiment: as above
Method in brief: as §1

[12] = system: HL-60; experiment: as above
Method in brief: as §1

[13] = system: MV4-11; experiment: as above
Method in brief: as §1

[14] = system: MOLM-13; experiment: as above
Method in brief: as §1

[15] = system: SHI-1; experiment: as above
Method in brief: as §1

[16] = system: Mono-Mac-6
Method in brief: (§2)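 For the IC50, dose–response curves were fitted with a log-logistic model. The data came from fifteen myeloid leukaemia cell lines grown in RPMI 1640 at densities in the linear growth range and incubated in 384-well plates for 72 h at 37 °C under 5% CO2. Doses were five tenfold steps from 1 to 10,000 nM in duplicate, and luminescent ATP viability was normalised to vehicle and to a positive control at 10 µM before four-parameter fitting.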

[17] = system: NOMO-1
Method in brief: as §2

[18] = system: THP-1
Method in brief: as §2

[19] = system: ML-2
Method in brief: as §2

[20] = system: KCL-22
Method in brief: as §2

[21] = system: BV-173
Method in brief: as §2

[22] = system: HEL
Method in brief: as §2

[23] = system: KU-812
Method in brief: as §2

[24] = system: K-562
Method in brief: as §2

[25] = system: KG-1
Method in brief: as §2

[26] = system: LAMA-84
Method in brief: as §2

[27] = system: HL-60
Method in brief: as §2

[28] = system: MV4-11
Method in brief: as §2

[29] = system: MOLM-13
Method in brief: as §2

[30] = system: SHI-1
Method in brief: as §2

O=C(Cc1cccc(OC(F)(F)F)c1)Nc1ccc(CCCCc2nnc(NC(=O)Cc3ccccn3)s2)nn1 [CB-839]
cell viability [%]
Conditions	1 nM	10 nM	100 nM	1000 nM	10000 nM
[1]	102	84.5	85	78.3	82
[2]	103	91.4	76.5	79.2	68.2
[3]	99.4	96.7	88.9	82.9	83.7
[4]	111	89.8	94.3	91.4	89.9
[5]	116	90.4	79.5	55.4	43.8
[6]	133	82.2	53.7	59.8	18.5
[7]	117	85.6	99.3	73.7	64.8
[8]	101	81.8	72.2	67.2	66.4
[9]	145	105	85.3	86	77.7
[10]	98.4	81.7	80.1	43	45.4
[11]	116	85.8	66.5	66.3	58.4
[12]	73.4	114	85.6	40.6	50.2
[13]	108	86	71.2	48.1	51.2
[14]	123	102	116	59.8	73.7
[15]	109	103	99.7	74.9	68.4

Conditions	IC50 (cell viability) [µM]
[16]	> 10
[17]	> 10
[18]	> 10
[19]	> 10
[20]	0.822
[21]	0.118
[22]	> 10
[23]	> 10
[24]	> 10
[25]	0.638
[26]	9.93
[27]	0.637
[28]	0.619
[29]	> 10
[30]	> 10
